Values after ≈ are worked out from the molar mass of the structure shown.
How the values were obtained:
[1] = test system: alkali phosphatase (derived from calf intestines); test: Conversion by alkali phosphatase, analyzed by liquid chromatography; type: in vitro ADME; conditions: 2 mg in 1 ml glycine buffer pH 7.0, 20U alkali phosphatase, 37°C for 1 hour, liquid chromatography RP-18, UV 260 nm
Protocol: 2 mg of the captioned compound was dissolved in 1 ml of a glycine buffer having pH of 7.0, and 20U of commercial alkali phosphatase (derived from calf intestines) was charged. The solution was kept at 37°C for 1 hour, and then analyzed by liquid chromatography [column: RP-18, elution solvent: a water/methanol solvent mixture, detection: UV wavelength 260 nm].

S. typhic 901 = test: In vitro antibacterial activity, agar disc dilution method; type: cell-based; conditions: Mueller Hinton agar, 10^6/ml, 37°C for 16 hours, read-out: minimum growth inhibitory concentration (MIC)
Protocol: (§1) An in vitro antibacterial activity was measured by an agar disc dilution method.
(§2) Varied test bacteria were cultivated overnight in triptophane-soybroth. A Mueller Hinton agar containing the compound of this invention in varied concentrations was streaked with one platinum loopful of each of the bacteria (number of living cells 10^6/ml).

S. marcescens I AM 1184 = test: as above; type: cell-based; conditions: Serratia marcescens, IAM1184; S. marcescens I AM 1184; Mueller Hinton agar, 10^6/ml, 37°C for 16 hours; read-out: minimum growth inhibitory concentration (MIC)
Protocol: as §1, §2

P. aeruginosa NCTC 1049 = test: as above; type: cell-based; conditions: Pseudomonas aeruginosa, NCTC1049; P. aeruginosa NCTC 1049; Mueller Hinton agar, 10^6/ml, 37°C for 16 hours; read-out: minimum growth inhibitory concentration (MIC)
Protocol: as §1, §2

E. coli K12C600 = test: as above; type: cell-based; conditions: Escherichia coli; E. coli K12C600; Mueller Hinton agar, 10^6/ml, 37°C for 16 hours; read-out: minimum growth inhibitory concentration (MIC)
Protocol: as §1, §2

B. subtilis ATCC 6633 = test: as above; type: cell-based; conditions: Bacillus subtilis, ATCC6633; B. subtilis ATCC 6633; Mueller Hinton agar, 10^6/ml, 37°C for 16 hours; read-out: minimum growth inhibitory concentration (MIC)
Protocol: as §1, §2

S. pyogenes Cook = test: as above; type: cell-based; conditions: Streptococcus pyogenes; S. pyogenes Cook; Mueller Hinton agar, 10^6/ml, 37°C for 16 hours; read-out: minimum growth inhibitory concentration (MIC)
Protocol: as §1, §2

P. rettgeric IFO3850 = test: as above; type: cell-based; conditions: P. rettgeric IFO3850; Mueller Hinton agar, 10^6/ml, 37°C for 16 hours; read-out: minimum growth inhibitory concentration (MIC)
Protocol: as §1, §2

K. pneumoniae PC I 602 = test: as above; type: cell-based; conditions: Klebsiella pneumoniae, PCI602; K. pneumoniae PC I 602; Mueller Hinton agar, 10^6/ml, 37°C for 16 hours; read-out: minimum growth inhibitory concentration (MIC)
Protocol: as §1, §2

S. enteritidis G14 = test: as above; type: cell-based; conditions: Salmonella enterica; S. enteritidis G14; Mueller Hinton agar, 10^6/ml, 37°C for 16 hours; read-out: minimum growth inhibitory concentration (MIC)
Protocol: as §1, §2

P. morganii IFO 3445 = test: as above; type: cell-based; conditions: Morganella morganii, IFO3445; P. morganii IFO 3445; Mueller Hinton agar, 10^6/ml, 37°C for 16 hours; read-out: minimum growth inhibitory concentration (MIC)
Protocol: as §1, §2

E. cloacae 963 = test: as above; type: cell-based; conditions: Enterobacter cloacae; E. cloacae 963; Mueller Hinton agar, 10^6/ml, 37°C for 16 hours; read-out: minimum growth inhibitory concentration (MIC)
Protocol: as §1, §2

S. aureus Terajima = test: as above; type: cell-based; conditions: Staphylococcus aureus; S. aureus Terajima; Mueller Hinton agar, 10^6/ml, 37°C for 16 hours; read-out: minimum growth inhibitory concentration (MIC)
Protocol: as §1, §2

M. euteus ATCC 9341 = test: as above; type: cell-based; conditions: M. euteus ATCC 9341; Mueller Hinton agar, 10^6/ml, 37°C for 16 hours; read-out: minimum growth inhibitory concentration (MIC)
Protocol: as §1, §2

P. vulgalis OX-19 = test: as above; type: cell-based; conditions: P. vulgalis OX-19; Mueller Hinton agar, 10^6/ml, 37°C for 16 hours; read-out: minimum growth inhibitory concentration (MIC)
Protocol: as §1, §2

Rf value of the main peak compared with the 6,7-dihydroxy-2-isoquinoliniummethyl compound (compound of Example 1) [1] | Compound | MIC (S. typhic 901) | MIC (S. marcescens I AM 1184) | MIC (P. aeruginosa NCTC 1049) | MIC (E. coli K12C600) | MIC (B. subtilis ATCC 6633) | MIC (S. pyogenes Cook) | MIC (P. rettgeric IFO3850) | MIC (K. pneumoniae PC I 602) | MIC (S. enteritidis G14) | MIC (P. morganii IFO 3445) | MIC (E. cloacae 963) | MIC (S. aureus Terajima) | MIC (M. euteus ATCC 9341) | MIC (P. vulgalis OX-19)
confirmed to agree | Nc1nc(/C(=N/Oc2ccccc2)C(=O)N[C@@H]2C(=O)N3C(C(=O)[O-])=C(C[n+]4ccc5cc(O)c(OS(=O)(=O)O)cc5c4)CS[C@H]23)cs1 [Example 6, (6R,7R)-7-[(Z)-2-(2-amino-1,3-thiazol-4-yl-2-phenoxyimino)acetamide]-3-(6,7-hydroxy-7-sulfonyloxy-2-isoquinolinium)methyl-3-cephem-4-carboxylate] |  |  |  |  |  |  |  |  |  |  |  |  |  | 
 | Nc1nc(/C(=N/Oc2ccccc2)C(=O)N[C@@H]2C(=O)N3C(C(=O)[O-])=C(C[n+]4cc(C(=O)O)c5cc(O)c(O)cc5c4)CS[C@H]23)cs1 [Compound VI, (6R,7R)-7-[(Z)-2-(2-amino-1,3-thiazol-4-yl)-2-phenoxyiminoacetamide]-3-(4-carboxy-6,7-dihydroxy-2-isoquinolinium)methyl-3-cephem-4-carboxylate] | < 0.01 mg/L | < 0.01 mg/L | 3.1 mg/L (≈ 4.68 µM) | 0.02 mg/L (≈ 0.0302 µM) | 1.6 mg/L (≈ 2.41 µM) | 0.8 mg/L (≈ 1.21 µM) | 0.02 mg/L (≈ 0.0302 µM) | 0.02 mg/L (≈ 0.0302 µM) | < 0.01 mg/L | 0.02 mg/L (≈ 0.0302 µM) | 0.05 mg/L (≈ 0.0755 µM) | 3.1 mg/L (≈ 4.68 µM) | 0.8 mg/L (≈ 1.21 µM) | < 0.01 mg/L
 | CC(=O)Oc1cc2cc[n+](CC3=C(C(=O)[O-])N4C(=O)[C@@H](NC(=O)/C(=N\Oc5ccccc5)c5csc(N)n5)[C@H]4SC3)cc2cc1O [Compound X] | < 0.01 mg/L | < 0.01 mg/L | 0.1 mg/L (≈ 0.151 µM) | < 0.01 mg/L | 0.8 mg/L (≈ 1.21 µM) | 0.8 mg/L (≈ 1.21 µM) | < 0.01 mg/L | < 0.01 mg/L | 0.01 mg/L (≈ 0.0151 µM) | < 0.01 mg/L | < 0.01 mg/L | 1.6 mg/L (≈ 2.42 µM) | 1.6 mg/L (≈ 2.42 µM) | < 0.01 mg/L

From patent publication EP0373216A1, “CEPHALOSPORIN COMPOUNDS OR THEIR SALTS, PROCESS FOR THEIR PREPARATION, AND PARMACEUTICAL COMPOSITIONS” (TEIJIN LIMITED, priority 1987, dated 1988)
